US20250054573A1, “METHOD OF CHARACTERISING A DNA SAMPLE” (Cambridge Enterprise Limited, priority 2021, published 2025)

Test system: human cancer cell lines
Experiment: Kendall's Tau correlation of CIN signature activities with drug response (AUC, PRISM drug repurposing screen) across cancer cell lines
Format: cell-based
Conditions: for tau (Kendall's Tau), CIN signature activity vs drug response: drug AUC, PRISM screen
From the text: Calculating signature activities for cell lines. […] Combined cell line log R and BAF data was split into sample-specific log R and BAF files. […] In this pipeline, while the rescued SNPs allow for the identification of additional segments from their Log R, by construction their average BAF is never equal to 0 or 1 even in the presence of LOH. This biases purity estimates towards lower values and renders the copy-number fitting inaccurate.
Where nT is the total number of copies in the tumour, ρ is the purity and ψ is the average tissue ploidy. Akin to ASCAT, we picked the purity and ploidy combination that minimized the distance between nr and integer values. […] As fitting of absolute copy number to non-matched cell line data is inherently more challenging than other instances, all cell lines where ASCAT identified a plausible solution were visually inspected to determine fit suitability and excluded cell lines where absolute copy number profiles were incorrect or poorly fitted. […] For identifying the signature activities, we used the linear combination decomposition function from YAPSA (R package, v1.12.0) and the 17 signatures of CIN.
CRISPR, RNAi and drug response data integration.
Correlation of signatures with target gene KO, KD and drug inhibition. Kendall's Tau correlation was performed between CIN signature activities and gene essentiality scores from the genetic perturbation screens. Correlations were filtered for tau<−0.07 and q-value<0.05 after multiple testing corrections using the Benjamini-Hochberg method. […] These targets were then used to test correlation of the signature activity with matched drug inhibition of the target measured via AUC.

O=C(c1cc(Cc2n[nH]c(=O)c3ccccc23)ccc1F)N1CCN(C(=O)C2CC2)CC1 [olaparib]
association of CX5 activity with drug response, in words (CIN sig. CX5, Target PARP1, 297 cancer cell lines): predicted response to olaparib

C/C1=C/C[C@@H](/C(C)=C/c2csc(C)n2)OC(=O)C[C@H](O)C(C)(C)C(=O)[C@H](C)[C@@H](O)[C@@H](C)CCC1 [epothilone-d]
tau (Kendall's Tau), CIN signature activity vs drug response (CIN sig. CX9, Target TUBB4B): −0.07597

COc1cc2c(cc1O)CC[C@@H]1[C@@H]2CC[C@]2(C)[C@@H](O)CC[C@@H]12 [2-methoxyestradiol]
tau (Kendall's Tau), CIN signature activity vs drug response (CIN sig. CX5, Target HIF1A): −0.1543

OC(Cc1ccncc1)C(Cl)(Cl)Cl (stereo not shown) [PETCM]
tau (Kendall's Tau), CIN signature activity vs drug response (CIN sig. CX9, Target CASP3): −0.1078

Cc1ccc(NC(=O)c2cccc(C(C)(C)C#N)c2)cc1Nc1ccc2ncn(C)c(=O)c2c1 [AZ-628]
tau (Kendall's Tau), CIN signature activity vs drug response (CIN sig. CX1, Target BRAF): −0.09859 | tau (Kendall's Tau), CIN signature activity vs drug response (CIN sig. CX14, Target BRAF): −0.1048 | tau (Kendall's Tau), CIN signature activity vs drug response (CIN sig. CX14, Target RAF1): −0.1048 | tau (Kendall's Tau), CIN signature activity vs drug response (CIN sig. CX15, Target BRAF): −0.1189

Cn1cc(CNCC2CCN(c3ncc(C(=O)NO)cn3)CC2)c2ccccc21 [JNJ-26481585]
tau (Kendall's Tau), CIN signature activity vs drug response (CIN sig. CX17, Target HDAC2): −0.1371 | tau (Kendall's Tau), CIN signature activity vs drug response (CIN sig. CX17, Target HDAC4): −0.1371

O=C1NC(=O)c2c1c1c3ccccc3[nH]c1c1[nH]c3ccccc3c21 [arcyriaflavin-a]
association of CX4 activity with drug response, in words (CIN sig. CX4, Target CCND1, 297 cancer cell lines): correlated with response to inhibition of CCND1 | tau (Kendall's Tau), CIN signature activity vs drug response (CIN sig. CX4, Target CCND1): −0.1159 | tau (Kendall's Tau), CIN signature activity vs drug response (CIN sig. CX13, Target CDK4): −0.07546
